From patent US20260159604A1, “USES OF NON-SMALL CELL LUNG CANCER TARGET ARID1A AND INHIBITOR THEREOF IN PREPARATION OF DRUG FOR TREATING LUNG CANCER” (THE FIRST AFFILIATED HOSPITAL OF BENGBU MEDICAL COLLEGE, priority 2021, published 2026)

Key:
[1] = tested on: ARID1A-deficient lung cancer cells; assay: Sensitivity to BETi small molecules in transgenic model mice (KP and KPAfl/fl groups); assay type: in vivo, mouse
Description: Finally, the sensitivity of BETi small molecules to ARID1A-deficient cells was tested on transgenic model mice (KP and KPAfl/fl groups) (FIG. 7 panel D).

[2] = tested on: KP and KPAfl/fl tumor-derived organoids; assay: Drug sensitivity of BET inhibitors on tumor-derived organoids; assay type: cell-based, mouse; settings: for number of organoids with increasing drug concentration: different drug concentrations
Description: Firstly, lung tumor cells of KP and KPAfl/fl mice were taken for in vitro organoid culture and expansion, and drug sensitivity experiments of five widely used BET inhibitors were conducted on tumor-derived organoids (as shown in FIG. 7 panel A).

[3] = tested on: ARID1A-mutant ovarian cancers; settings: reported studies; cited from earlier work
[4] = tested on: tumors with ARID1A knockout; assay: KP and KPAfl/fl tumor organoids xenotransplanted subcutaneously into C57 mice; assay type: in vivo, mouse; settings: subcutaneous organoid xenotransplant in C57 mice, volumes measured every 3 days
Description: During the experiment, tumor volumes were measured every 3 days.

[5] = tested on: ARID1A-deficient lung cancers; assay: Intervention in glycolysis in AAV9-CMV-Cre induced KP and KPAfl/fl mouse lung cancer models; assay type: in vivo; settings: KPAfl/fl mice, AAV9-CMV-Cre induction
Text: In Example 4 of the present invention, the biological mechanism of ARID1A deletion promoting lung cancer progression by increasing glycolysis levels was described. In this example, one or more strategies were used to intervene in glycolysis levels, and whether the method(s) could inhibit the progression of ARID1A-deficient lung cancers was observed. In one embodiment, the present invention used a clinical drug 2-DG to inhibit glucose metabolism levels, including glycolysis levels of tumor cells. In another embodiment, the present invention used lentivirus-mediated CRISPR/Cas9 to interfere with the expression of Pgam1 gene (pSECC-sgPgaml group), wherein the nucleotide sequences of the sgRNA were as shown in SEQ ID NO: 4 and SEQ ID NO: 5. In another embodiment, the present invention used lentivirus-mediated CRISPR/Cas9 to interfere with the expression of Pkm gene (pSECC-sgPkm group), wherein the nucleotide sequences of the […] were as shown in SEQ ID NO: 6 and SEQ ID NO: 7.
Firstly, 4-week-old KP and KPAfl/fl mouse systems were established. Secondly, AAV9-CMV-Cre virus induction was performed on mice. At the same time, lentivirus-mediated Cas9 and sgRNA were administered respectively to target a key gene Pgam1 or Pkm in glycolysis for intervention, with 2-DG drug treatment as another experimental group. […]

Cc1sc2c(c1C)C(c1ccc(Cl)cc1)=N[C@@H](CC(=O)OC(C)(C)C)c1nnc(C)n1-2 [JQ1]
slowing of progression of ARID1A-deficient lung cancers (FIG. 7 legend) ([1]; FIG. 7 summary): more prominent inhibitory effect
sensitivity by comparing the number and area of tumors ([1]; transgenic KP and KPAfl/fl mice): sensitive
survival ability of ARID1A-deficient versus ARID1A wild-type tumor organoids [2]: greater damage to the survival ability of ARID1A-deficient tumor organoids than ARID1A wild-type organoids
number of organoids with increasing drug concentration ([2]; 7th day): the number of organoids decreased with the increase of drug concentration
formation of tumor-derived organoids, KPAfl/fl versus KP ([2]; concentrations of 10 μm and 50 μm, 7th day): selectively impaired the formation of KPAfl/fl tumor-derived organoids
sensitivity of ARID1A-deficient lung adenocarcinoma cells to BETi compounds ([2]; summary statement, compared with other BETi): more sensitive
inhibitory effects on ARID1A-mutant ovarian cancers [3]: inhibitory effects on ARID1A-mutant ovarian cancers
sensitivity by comparing tumor volumes and weights [4]: more sensitive

O=CC[C@@H](O)[C@H](O)[C@H](O)CO [2-DG, 2-deoxy-D-glucose]
inhibition of tumor progression caused by the ARID1A deletion [5]: could to some extent inhibit tumor progression

COc1cc2c(cc1-c1c(C)noc1C)ncc1[nH]c(=O)n([C@H](C)c3ccccn3)c12 [Bet151]
number of organoids with increasing drug concentration ([2]; 7th day): the number of organoids decreased with the increase of drug concentration

Cc1sc2c(c1C)C(c1ccc(Cl)cc1)=N[C@@H](CC(=O)Nc1ccc(O)cc1)c1nnc(C)n1-2 [OTX015, Birabresib]
number of organoids with increasing drug concentration ([2]; 7th day): the number of organoids decreased with the increase of drug concentration

CC(=O)N1c2ccc(-c3ccc(C(=O)O)cc3)cc2[C@H](Nc2ccc(Cl)cc2)C[C@@H]1C [Bet726]
number of organoids with increasing drug concentration ([2]; 7th day): the number of organoids decreased with the increase of drug concentration
